Measured values from US10710980B2, “Aminopyridine derivatives and their use as selective ALK-2 inhibitors” (priority 2016, dated 2020).

Assays:
[1] = test system: BMP response element (BRE) luciferase reporter in HuH7 cells, BMP6 stimulated; test: BMP signaling reporter gene assay; assay type: cell-based; conditions: Homo sapiens, Huh-7; HuH7 BRE-luciferase, BMP6 100 ng/ml, 5 hours; read-out: MSD BMP RGA IC50
ALK3 (aa198-525) = ALK3 (aa198-525) (Homo sapiens (Human), UniProt P36894); test: ADPGlo biochemical autophosphorylation assay, ALK3; conditions: 15 μm ATP, 60 min at 32° C.
Sequence of ALK3 (aa198-525) (P36894 198-525): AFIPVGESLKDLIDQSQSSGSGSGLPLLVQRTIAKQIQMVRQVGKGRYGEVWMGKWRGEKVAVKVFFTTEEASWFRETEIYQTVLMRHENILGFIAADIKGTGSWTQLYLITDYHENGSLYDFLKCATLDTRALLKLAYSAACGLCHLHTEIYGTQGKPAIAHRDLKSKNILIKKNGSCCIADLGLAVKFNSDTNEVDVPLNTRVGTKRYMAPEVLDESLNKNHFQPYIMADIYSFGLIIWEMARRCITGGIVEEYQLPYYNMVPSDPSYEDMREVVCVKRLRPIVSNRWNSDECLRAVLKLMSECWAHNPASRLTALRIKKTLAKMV

[2] = molecular target: T1, wild-type ALK2 (aa172-499) (Homo sapiens (Human), UniProt Q04771); test: ADPGlo biochemical autophosphorylation assay, ALK2; conditions: 15 μm ATP, 60 min at 32° C.
T1 sequence (Q04771 172-499): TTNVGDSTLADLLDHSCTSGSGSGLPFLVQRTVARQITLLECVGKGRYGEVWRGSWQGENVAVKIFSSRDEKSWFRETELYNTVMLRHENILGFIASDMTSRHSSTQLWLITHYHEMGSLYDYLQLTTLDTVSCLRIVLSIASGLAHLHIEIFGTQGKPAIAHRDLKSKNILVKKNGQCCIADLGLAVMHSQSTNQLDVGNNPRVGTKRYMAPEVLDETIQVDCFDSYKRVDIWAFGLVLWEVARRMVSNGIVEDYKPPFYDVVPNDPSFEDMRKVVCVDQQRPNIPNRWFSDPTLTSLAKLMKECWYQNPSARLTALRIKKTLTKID

ALK1 (aa166-493) = ALK1 (aa166-493) (Homo sapiens (Human), UniProt P37023); test: Caliper biochemical peptide phosphorylation assay, ALK1; conditions: 15 μm ATP, 60 min at 30° C.; read-out: ALK1 EPK (IC50)
Sequence of ALK1 (aa166-493) (P37023 166-493): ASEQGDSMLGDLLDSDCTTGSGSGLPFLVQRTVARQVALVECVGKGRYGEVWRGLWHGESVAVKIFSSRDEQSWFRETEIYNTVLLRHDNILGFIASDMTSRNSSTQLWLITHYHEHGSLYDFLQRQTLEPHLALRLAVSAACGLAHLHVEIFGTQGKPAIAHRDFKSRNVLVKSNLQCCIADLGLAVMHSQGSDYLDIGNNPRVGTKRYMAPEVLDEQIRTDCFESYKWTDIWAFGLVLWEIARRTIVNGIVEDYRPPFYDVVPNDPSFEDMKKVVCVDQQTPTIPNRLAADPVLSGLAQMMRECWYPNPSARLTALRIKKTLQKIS

[3] = molecular target: T1, wild-type ALK2 (aa172-499); test: Caliper biochemical peptide phosphorylation assay, ALK2; conditions: 15 μm ATP, 60 min at 30° C.; read-out: ALK2 EPK (IC50)
ALK6 (aa168-495) = ALK6 (aa168-495) (Homo sapiens (Human), UniProt O00238); test: Caliper biochemical peptide phosphorylation assay, ALK6; conditions: 15 μm ATP, 60 min at 30° C.; read-out: ALK6 EPK (IC50)
Sequence of ALK6 (aa168-495) (O00238 168-495): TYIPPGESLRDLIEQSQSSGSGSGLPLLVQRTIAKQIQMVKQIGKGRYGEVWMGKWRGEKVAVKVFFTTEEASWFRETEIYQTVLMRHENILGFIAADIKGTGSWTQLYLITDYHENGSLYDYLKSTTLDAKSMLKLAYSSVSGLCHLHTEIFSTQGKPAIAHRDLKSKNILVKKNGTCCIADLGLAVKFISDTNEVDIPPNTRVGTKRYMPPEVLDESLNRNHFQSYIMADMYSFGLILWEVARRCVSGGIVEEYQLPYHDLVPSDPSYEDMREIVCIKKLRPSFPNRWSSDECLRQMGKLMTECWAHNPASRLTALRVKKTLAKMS

ALK5 (aa162-503) = ALK5 (aa162-503) (Homo sapiens (Human), UniProt P36897); test: Caliper biochemical peptide phosphorylation assay, ALK5; conditions: 15 μm ATP, 60 min at 30° C.; read-out: ALK5 EPK (IC50)
Sequence of ALK5 (aa162-503) (P36897 162-503): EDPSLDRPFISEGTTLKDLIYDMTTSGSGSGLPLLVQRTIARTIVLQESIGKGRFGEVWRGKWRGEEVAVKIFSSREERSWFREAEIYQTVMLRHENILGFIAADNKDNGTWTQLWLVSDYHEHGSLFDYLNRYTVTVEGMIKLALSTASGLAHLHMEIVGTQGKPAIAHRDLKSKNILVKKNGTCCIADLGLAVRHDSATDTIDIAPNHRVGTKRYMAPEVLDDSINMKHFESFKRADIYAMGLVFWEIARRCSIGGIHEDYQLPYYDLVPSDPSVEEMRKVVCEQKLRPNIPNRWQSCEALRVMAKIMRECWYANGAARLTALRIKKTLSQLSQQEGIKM

Row | SMILES | IC50 [1] | IC50 (ALK3 (aa198-525)) | IC50 [2] | IC50 (ALK1 (aa166-493)) | IC50 [3] | IC50 (ALK6 (aa168-495)) | IC50 (ALK5 (aa162-503))
1 | CC#CCN1C[C@@H]2C[C@]2(c2ccc(-c3cnc(N)c(C(=O)N[C@H]4CC[C@H](O)CC4)c3)cc2)C1 [Example 37, 2-amino-5-(4-((1S,5R)-3-(but-2-yn-1-yl)-3-azabicyclo[3.1.0]hexan-1-yl)phenyl)-N-((1r,4S)-4-hydroxycyclohexyl)nicotinamide] | 37 nM | 960 nM | 8 nM | 100 nM | 27 nM | 1.7 µM | 1.1 µM
2 | Nc1ncc(-c2ccc([C@]34C[C@H]3CN(CC3COC3)C4)cc2)cc1C(=O)N[C@H]1CC[C@H](O)CC1 [Example 38, 2-amino-N-((1r,4S)-4-hydroxycyclohexyl)-5-(4-((1S,5R)-3-(oxetan-3-ylmethyl)-3-azabicyclo[3.1.0]hexan-1-yl)phenyl)nicotinamide] | 58 nM | 1300 nM | 7 nM | 160 nM | 28 nM | 2.6 µM | 1.5 µM
3 | Nc1ncc(-c2ccc([C@@]34C[C@@H]3CN(CCOCC(F)(F)F)C4)cc2)cc1C(=O)N[C@H]1CC[C@H](O)CC1 [Example 41, 2-amino-N-((1r,4R)-4-hydroxycyclohexyl)-5-(4-((1R,5S)-3-(2-(2,2,2-trifluoroethoxy)ethyl)-3-azabicyclo[3.1.0]hexan-1-yl)phenyl)nicotinamide] | 158 nM | 1800 nM | 19 nM | 310 nM | 23 nM | 6.9 µM | 6.7 µM
4 | Nc1ncc(-c2ccc([C@]34C[C@H]3CN(C3CCOCC3)C4)cc2)cc1C(=O)NC12CCC(O)(CC1)CC2 [Example 42, 2-amino-N-(4-hydroxybicyclo[2.2.2]octan-1-yl)-5-(4-((1S,5R)-3-(tetrahydro-2H-pyran-4-yl)-3-azabicyclo[3.1.0]hexan-1-yl)phenyl)nicotinamide] | 235 nM | 1300 nM | 26 nM | 540 nM | 29 nM | 4.1 µM | 4.77 µM
5 | Nc1ncc(-c2ccc([C@@]34C[C@@H]3CN(C3CCS(=O)(=O)CC3)C4)cc2)cc1C(=O)N[C@H]1CC[C@H](O)CC1 [Example 44, 2-amino-5-(4-((1R,5S)-3-(1,1-dioxidotetrahydro-2H-thiopyran-4-yl)-3-azabicyclo[3.1.0]hexan-1-yl)phenyl)-N-((1r,4R)-4-hydroxycyclohexyl)nicotinamide] | 365 nM | 430 nM | 18 nM | 170 nM | 24 nM | 2 µM | 3.2 µM
6 | Nc1ncc(-c2ccc([C@@]34C[C@@H]3CN(CCF)C4)cc2)cc1C(=O)N[C@H]1CC[C@H](O)CC1 [Example 48, 2-amino-5-(4-((1R,5S)-3-(2-fluoroethyl)-3-azabicyclo[3.1.0]hexan-1-yl)phenyl)-N-((1r,4R)-4-hydroxycyclohexyl)nicotinamide] | 360 nM | 970 nM | 8 nM | 120 nM | 34 nM | 4.4 µM | 5.3 µM
7 | CC(F)(F)CN1C[C@H]2C[C@@]2(c2ccc(-c3cnc(N)c(C(=O)N[C@H]4CC[C@H](O)CC4)c3)cc2)C1 [Example 50, 2-amino-5-(4-((1R,5S)-3-(2,2-difluoropropyl)-3-azabicyclo[3.1.0]hexan-1-yl)phenyl)-N-((1r,4R)-4-hydroxycyclohexyl)nicotinamide] | 825 nM | 2400 nM | 11 nM | 500 nM | 37 nM | 5.1 µM | 6.4 µM
8 | N#CCCN1C[C@@H]2C[C@]2(c2ccc(-c3cnc(N)c(C(=O)N[C@H]4CC[C@H](O)CC4)c3)cc2)C1 [Example 51, 2-amino-5-(4-((1S,5R)-3-(2-cyanoethyl)-3-azabicyclo[3.1.0]hexan-1-yl)phenyl)-N-((1r,4S)-4-hydroxycyclohexyl)nicotinamide] | 64 nM | 780 nM | 16 nM | 120 nM | 31 nM | 1.7 µM | 1.4 µM
9 | Nc1ncc(-c2ccc(OCCCN3CCOCC3)cc2)cc1C(=O)NC1CCCCC1 [Example 52, 2-amino-N-cyclohexyl-5-(4-(3-morpholinopropoxy)phenyl)nicotinamide] | 340 nM | 2800 nM | 67 nM | 970 nM | 31 nM | 20.2 µM | 8.6 µM

Further lines, results first:

Row | IC50 [1] | IC50 (ALK3 (aa198-525)) | IC50 [2] | IC50 (ALK1 (aa166-493)) | IC50 [3] | IC50 (ALK6 (aa168-495)) | IC50 (ALK5 (aa162-503)) | SMILES
10 | 43 nM | 1450 nM | 16 nM | 295 nM | 23 nM | 7.2 µM | 10 µM | CC(C)N1C[C@H]2C[C@@]2(c2ccc(-c3cnc(N)c(C(=O)NC45CC(CO)(C4)C5)c3)cc2)C1 [Example 36, 2-amino-N-(3-(hydroxymethyl)bicyclo[1.1.1]pentan-1-yl)-5-(4-((1R,5S)-3-isopropyl-3-azabicyclo[3.1.0]hexan-1-yl)phenyl)nicotinamide]
11 | 78 nM | 830 nM | 13 nM | 190 nM | 24 nM | 2 µM | 1.6 µM | Nc1ncc(-c2ccc([C@@]34C[C@@H]3CN(C3CCN(CC(F)(F)F)CC3)C4)cc2)cc1C(=O)N[C@H]1CC[C@H](O)CC1 [Example 39, 2-amino-N-((1r,4R)-4-hydroxycyclohexyl)-5-(4-((1R,5S)-3-(1-(2,2,2-trifluoroethyl)piperidin-4-yl)-3-azabicyclo[3.1.0]hexan-1-yl)phenyl)nicotinamide]
12 | 75 nM | 995 nM | 32 nM | 410 nM | 29 nM | 2.85 µM | 3.9 µM | Nc1ncc(-c2ccc([C@]34C[C@H]3CN(CCN3CCOCC3)C4)cc2)cc1C(=O)NC12CCC(O)(CC1)CC2 [Example 40, 2-amino-N-(4-hydroxybicyclo[2.2.2]octan-1-yl)-5-(4-((1S,5R)-3-(2-morpholinoethyl)-3-azabicyclo[3.1.0]hexan-1-yl)phenyl)nicotinamide]
13 | 130 nM | 2350 nM | 31 nM | 765 nM | 25 nM | 11.1 µM | 3.5 µM | Nc1ncc(-c2ccc(OCCCN3CCCCC3)cc2)cc1C(=O)NC1CCCCC1 [Example 43, 2-amino-N-cyclohexyl-5-(4-(3-(piperidin-1-yl)propoxy)phenyl)nicotinamide]
14 | 365 nM | 1600 nM | 20 nM | 750 nM | 25 nM | 4.8 µM | 2.7 µM | CN1CCN(C(=O)c2ccc(-c3cnc(N)c(C(=O)NC4CCCCC4)c3)cc2)CC1 [Example 45, 2-amino-N-cyclohexyl-5-(4-(4-methylpiperazine-1-carbonyl)phenyl)nicotinamide]
15 | 130 nM | 1300 nM | 21 nM | 290 nM | 25 nM | 3.5 µM | 4.7 µM | Nc1ncc(-c2ccc([C@@]34C[C@@H]3CN(CCC(F)(F)F)C4)cc2)cc1C(=O)N[C@H]1CC[C@H](O)CC1 [Example 47, 2-amino-N-((1r,4R)-4-hydroxycyclohexyl)-5-(4-((1R,5S)-3-(3,3,3-trifluoropropyl)-3-azabicyclo[3.1.0]hexan-1-yl)phenyl)nicotinamide]
